# Values quoted from earlier work, collected in publication PMC9885524 (Journal of natural products, 2023).
# Test system: live SARS-CoV-2
# Conditions: read-out: half-maximal effective concentrations against live SARS-CoV-2 in vitro; depending on the SARS-CoV-2 variant
smiles,measurement,value
"Oc1ccc([C@@H]2c3c(O)cc(O)cc3[C@@H]3c4c(cc(O)cc4[C@H]2[C@@H]2c4cc(O)cc5c4[C@@H](c4cc(O)cc(O)c4[C@H]2c2ccc(O)cc2)[C@H](c2ccc(O)cc2)O5)O[C@H]3c2ccc(O)cc2)cc1 [(−)-hopeaphenol, (−)-Hopeaphenol]",EC50,7.5 to 23 µM
